{
  "source": "paper PMC10906223",
  "about": "(JCI Insight, 2024)",
  "key": {"[1]": {"test_system": "murine dispersed islet cells", "assay": "Glucagon secretion from murine dispersed islet cells", "type": "cell-based, mouse", "conditions": "for Relative secretion of glucagon: one value per mouse", "method": "Pancreata of nondiabetic C57BL/6J mice were digested using collagenase P (Roche Diagnostics, catalog 11213873001), and islets were manually picked up using a stereomicroscope (ZEISS Stemi 305). […] Isolated mouse islets or provided human islets were dispersed as described ([28]). Briefly, 100–120 islets were washed 2 times using modified HBSS, then dispersed in 600 μL Accutase (Innovative Cell Technologies, catalog AT-104) by gently pipetting up and down for 7 minutes at 37°C. […] Following refreshing of KRBH, cells were dispensed in 8 microfuge tubes (2,000 cells/tube) and treated with WCDD301, preclustered Ephrin-A5 Fc, or preclustered Fc in the presence or absence of the competitive inhibitor of EphA4 receptor, rhyncophylline ([60]) (MilliporeSigma, catalog SML2345). In the presence or absence of these effectors, secretion assay was performed sequentially as shown in Supplemental Table 5. […] Preclustering of Ephrin-A5 Fc was done by mixing Ephrin-A5 Fc or Fc alone (BioLegend, catalog 790102) with anti-Fc antibody (Invitrogen, catalog A16086) (1:10 molar ratio) 20 minutes before treatment ([62]). […] Shedding of cleaved EphA4 was measured from the cell culture medium. Experiments were performed by dispersion of 200 islets, and EphA4 levels in media were measured by EphA4 ELISA (ABclonal, catalog RK06572)."}, "[2]": {"test_system": "human dispersed islet cells", "assay": "Immunofluorescence: EphA4 intensity in glucagon+ human dispersed islet cells;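 on EphA4 intensity: ImageJ intensity within ROI drawn around each glucagon+ cell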", "type": "cell-based", "method": "(§1) Coverslips were treated with WCDD301, preclustered Ephrin-A5 Fc, or preclustered Fc in the following sequential order: KRBH (11 mM glucose, 30 minutes), KRBH (1 mM glucose, 60 minutes), KRBH (1 mM glucose, 30 minutes), and KRBH (11 mM glucose, 60 minutes). After treatment, coverslips were washed once in PBS, fixed in 2% paraformaldehyde in PBS (30 minutes), and again washed in PBS. […] Following wash in PBS, coverslips were incubated in a mixture of Alexa Fluor 555 Phalloidin (Cell Signaling Technology, catalog 8953) and secondary antibodies (goat anti-rabbit Alexa Fluor 488, catalog A-21094, 1:1,000, Molecular Probes; and goat anti-mouse Alexa Fluor 633, catalog A21052, 1:1,000, Life Technologies) for 1 hour at RT. Both primary and secondary antibodies were diluted in blocking buffer containing 0.05% Tween 20. Coverslips were washed using PBS and counterstained by using DAPI (1:1,000) for 10 minutes. Following 2 washes in PBS, coverslips were mounted on glass slides using ProLong Glass Antifade Mountant (Invitrogen, catalog P36980). Images were captured using the Zeiss LSM880 microscope with a Plan-Apochromat 63× 1.4 NA objective lens by setting dual-band dichroic/filter for 405, 488, 561, and 633 nm laser excitation. For each slide, 25–30 fields of view were scanned, and in each field of view, 3–5 cells were imaged. […] Values of intensity were compared among groups using 1-way ANOVA, α = 0.05."}, "[3]": {"test_system": "mouse dispersed islet cells", "assay": "Immunofluorescence: EphA4 intensity in glucagon+ mouse dispersed islet cells", "type": "cell-based", "method": "as §1"}, "[4]": {"test_system": "diabetic NOD mice", "assay": "Hematoxylin-Eosin staining of pancreatic islets of NOD mice", "type": "in vivo, mouse", "conditions": "WCDD301-treated diabetic NOD mice"}, "[5]": {"assay": "Plasma stability assay, CD-1 mouse plasma", "type": "in vitro ADME", "conditions": "for Ln (% Remaining): mouse plasma, 37°C, Figure 5B", "method": "Pooled frozen plasma of CD-1 mice (n = 20; catalog MSE00PLK2M2N, Beijing Vital River Laboratory Animal Technology) or humans (n = 6, catalog […]2P2N, Bioreclamation IVT), equal numbers of males and females, was thawed in a 37°C water bath, and residual clots were removed by centrifugation (500g for 5 minutes). Plasma (98 μL) was aliquoted in each well of 96-well reaction plates using an Apricot automation workstation. WCDD301 (100 μM) or propantheline bromide (100 μM, as a positive control) was added (2 μL/well) to sets of wells assigned to blank or time points (T0, T10, T30, T60, and T120 minutes) and incubated at 37°C. At each time point, the reaction was stopped by adding stop solution (500 μL; a mixture of 200 ng/mL of tolbutamide and labetalol in acetonitrile), mixed thoroughly, sealed, shaken (20 minutes), and centrifuged (1,750g, 4°C, 20 minutes). A total of 150 μL of the supernatant from each well of the reaction plate was transferred to its corresponding bioanalysis plate for LC-MS/MS analysis. The remaining level (%) of the WCDD301 was calculated using the following equation: remaining (%) = (PAR at each time point/PAR at T0) × 100. PAR stands for the peak area ratio of the WCDD301 versus internal standard."}},
  "note": "“And” between values parts separate entries of the source, which are not always exact repeats. Equal entries are not always repeated.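 Wherever EphA4 intensity is given: ImageJ intensity within ROI drawn around each glucagon+ cell.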",
  "data": [
    {"smiles": "CC(=O)OCC(N)(COC(C)=O)COC(C)=O", "note": "[WCDD301, 2-(acetoxymethyl)-2-aminopropane-1,3-diyl diacetate]", "values": [
      {"measurement": "Effect on arginine-stimulated glucagon secretion", "setting": "[1]; 1 mM and 11 mM glucose, Arg 25 mM, 301 3 µM, E 4 µg/mL, Supplemental Figure 2", "result": "its effect was suppressed"},
      {"measurement": "Effect on glucagon secretion", "setting": "[1]; 11 mM glucose, Figure 1F", "result": "suppressed glucagon secretion"},
      {"measurement": "Secretion of glucagon", "setting": "[1]; 301 (1.5 µM) + Rhy (2.5 µM), Glucose (1 mM), Figure 1H", "result": "1.25 and 1.09 and 1.1 and 1.05 and 1"},
      {"measurement": "Secretion of glucagon", "setting": "[1]; 301 (1.5 µM) + Rhy (2.5 µM), Glucose (11 mM), Figure 1H", "result": "0.64 and 0.69 and 0.7 and 0.75 and 0.72"},
      {"measurement": "Relative secretion of glucagon", "setting": "[1]; 301 (1.5 µM), Glucose (1 mM), Figure 1F", "result": "0.81 and 0.78 and 0.75 and 0.68 and 0.86"},
      {"measurement": "Relative secretion of glucagon", "setting": "[1]; 301 (1.5 µM), Glucose (11 mM), Figure 1F", "result": "0.91 and 0.85 and 1.05 and 0.78 and 1.01"},
      {"measurement": "Secretion of glucagon", "setting": "[1]; 301 (3 µM) + Rhy (2.5 µM), Glucose (1 mM), Figure 1H", "result": "0.87 and 0.81 and 0.9 and 0.85 and 0.8"},
      {"measurement": "Secretion of glucagon", "setting": "[1]; 301 (3 µM) + Rhy (2.5 µM), Glucose (11 mM), Figure 1H", "result": "0.41 and 0.5 and 0.46 and 0.45 and 0.48"},
      {"measurement": "Relative secretion of glucagon", "setting": "[1]; 301 (3 µM), Glucose (1 mM), Figure 1F", "result": "0.89 and 0.7 and 0.75 and 0.68"},
      {"measurement": "Relative secretion of glucagon", "setting": "[1]; 301 (3 µM), Glucose (11 mM), Figure 1F", "result": "0.83 and 0.75 and 0.7 and 0.8 and 0.87"},
      {"measurement": "Glucagon secretion in presence of rhyncophylline", "setting": "[1]; WCDD301 3 μM, Figure 1H", "result": "outcompeted the inhibitor"},
      {"measurement": "EphA4 intensity", "setting": "[2]; human cells, individual values, Figure 3G", "result": "58.8 and 45.8 and 8.0 and 57.8 and 32.5 and 5.4 and 45.9 and 14.9 and 11.0"},
      {"measurement": "Effect on intracellular EphA4", "setting": "[2]; α cells, human donors", "result": "increased intracellular EphA4 intensity"},
      {"measurement": "Effect on EphA4 intensity", "setting": "[3]; dispersed mouse islet cells", "result": "increased EphA4 intensity"},
      {"measurement": "EphA4 intensity", "setting": "[3]; mouse cells, individual values, Figure 3H", "result": "35.0 and 29.0 and 43.3 and 17.8 and 36.0 and 30.0 and 27.0 and 37.0 and 31.0 and 41.7 and 27.2 and 38.0 and 32.0 and 32.1 and 39.0 and 33.0 and 19.7"},
      {"measurement": "Mononuclear cell infiltration and edema (Hematoxylin-Eosin)", "setting": "[4]", "result": "no mononuclear infiltration or apparent edema"},
      {"measurement": "half-life at 2 µM", "setting": "[5]; both sexes, CD-1, mouse, plasma", "result": 1.75, "unit": "h"},
      {"measurement": "Ln (% Remaining)", "setting": "[5]; 10 min", "result": -0.4},
      {"measurement": "Ln (% Remaining)", "setting": "[5]; 60 min", "result": -0.55},
      {"measurement": "Ln (% Remaining)", "setting": "[5]; 120 min", "result": -0.94}
    ]}
  ]
}
